In brackets after ≈: the same amount, converted by molar mass.
Columns and labels:
[1] = test system: cell-mediated immune response to the antigen, Mycobacterium tuberculosis H37Ra; assay: delayed hypersensitivity test; type: in vivo, mouse; details: mice, dose reducing edema of cell-mediated immune response by 60% vs control; for ED60: Mus musculus, sc, read-out: D.H.S. (ED60)
Description: The immunosuppressant activities of the compounds of this invention were determined via the hemolysin test in mice and by the delayed hypersensitivity test. The hemolysin test used is that described in Methods in Immunology, edited by D. H. Campbell et al, W. A. Benjamin, New York 1963 pages 172-175, and measures humeral or antibody response. The delayed hypersensitivity test measures the effect of a test compound on the ability of a subject mouse to mount a cell-mediated immune response to the antigen, Mycobacterium tuberculosis H37Ra. The mouse is sensitized to the antigen by subcutaneous administration in the base of the tail. The development of the delayed hypersensitivity response may be measured at any time beginning six days after sensitization but is usually done on the ninth day as follows: The right hind paw is injected with purified protein derivative (tuberculin) while the left hind paw (control) receives physiological saline. Both paw volumes are measured after twenty-four hours and significant increase in the volume of the right hand paw is taken as a measure of an effective delayed hypersensitivity response. All compounds were administered by the subcutaneous route.
The D.H.S. (ED60) mg./kg. s.c. value appearing in column 3 is an expression of the effectiveness of the drug in reducing the edema that accompanies the cell-mediated immune response. It is a measure of the number of milligrams per kilogram of body weight of the drug administered subcutaneously which is required to reduce the edema of the cell-mediated immune response by 60% when compared to the control.

[2] = test system: humeral or antibody response; assay: hemolysin test in mice; type: in vivo; details: Mus musculus, sc, dose reducing antibody activity by 50% vs control, read-out: HL(ED50)
[3] = test system: carrageenan rat paw edema; assay: Rat Paw Edema Assay, Oral Dosing; type: in vivo; details: 4 h, four hours after drug, read-out: % Difference from Control; for change in vivo at 100 mg/kg: 100 mg/kg oral; for change in vivo at 400 mg/kg: 400 mg/kg oral
Description: The anti-inflammatory activity of representative compounds of this invention was determined by the rat paw edema assay both by local administration (Table XI below) and by oral dosing (Table XII below). For the oral dosing, the procedure of C. A. Winter, E. A. Risley and G. W. Nuss, Proc. Soc. Exp. Biol. Med. III, 544 (1962) was employed with measurement taken four hours after the drug was administered. The local administration tests were carried out similarly except the irritant (carrageenan) and the test compound were injected simultaneously at time zero.
Tables XI and XII report the anti-inflammatory activity of the compounds tested as % difference in the edema or swelling as compared with the control. These Tables also give the response in many instances of more than one dose level of the same drug.

[4] = test system: Trichophyton mentagrophytes; assay: Antifungal activity, agar dilution method; type: cell-based, Trichophyton mentagrophytes (ATCC No. 8757 and 9129); details: T. mentagrophytes, read-out: Parts Per Million Inhibitions of T. mentagrophytes
Description: various compounds of this invention display antifungal and anti-yeast activity.
In Table IX below are listed the antifungal activity of a number of compounds encompassed in the present invention. These were determined by the agar dilution method as described in Chapters 2 and 3 of Methods in Microbiology, Vol. 7B, edited by J. R. Norris and D. W. Ribbons, Academic Press, New York, 1972.

| SMILES | ED60 [1] [mg/kg] | ED50 [2] [mg/kg] | change in vivo at 100 mg/kg [3] [%] | other results |
| --- | --- | --- | --- | --- |
| N#Cc1ccc(-c2nc3ccccc3n3ccnc23)cc1 [Compound 149] | 8.8 | 0.16 |  |  |
| O=C(Nc1ccccc1-n1ccnc1)C(F)(F)F [Compound 30] |  |  | 9 | change in vivo at 400 mg/kg [3]: -33% |
| O=[N+]([O-])c1cccc(-c2nc3ccccc3n3ccnc23)c1 [Compound 150] | > 50 | 22 | -30 |  |
| Clc1ccc(-c2nc3ccccc3n3ccnc23)cc1Cl [Compound 143] | 1.3 | 0.36 |  |  |
| CC(C)Cc1nc2ccccc2n2ccnc12 [Compound 121] |  |  | -61 |  |
| O=C(Nc1ccccc1-n1ccnc1)C1CCCCC1 [Compound 25] |  |  | -30 |  |
| CCCNC(=O)Nc1ccccc1-n1ccnc1 [Compound 66] | > 50 | 46 |  |  |
| O=C(Nc1ccccc1-n1ccnc1)c1cccc(Cl)c1 [Compound 50] |  |  | -20 | change in vivo at 400 mg/kg [3]: -33% |
| c1ccc(Oc2ccc(-c3nc4ccccc4n4ccnc34)cc2)cc1 [Compound 219] | > 32 | 2.5 |  |  |
| Fc1cccc(Nc2nc3ccccc3n3ccnc23)c1 [Compound 181] |  | 16 |  |  |
| Clc1ccc(-c2nc3ccccc3n3ccnc23)c(Cl)c1 [Compound 144] |  |  | -26 |  |
| Brc1ccccc1Nc1nc2ccccc2n2ccnc12 [Compound 177] | > 50 | 13 |  |  |
| COc1ccc(Oc2ccc(-c3nc4ccccc4n4ccnc34)cc2)cc1 [Compound 220] | 11 | 2.3 |  |  |
| O=C(Nc1ccccc1-n1ccnc1)C1CCC1 [Compound 24] |  |  | -17 | change in vivo at 400 mg/kg [3]: -25% |
| Clc1ccc(Nc2nc3ccccc3n3ccnc23)cc1 [Compound 174] | 8 | 0.61 |  |  |
| O=C(Nc1cccc(F)c1)Nc1ccccc1-n1ccnc1 [Compound 73] |  |  | -22 |  |
| CC(C)c1ccc(Nc2nc3ccccc3n3ccnc23)cc1 [Compound 218] | 25 | 1.5 |  |  |
| Cc1ccc(NC(=O)Nc2ccccc2-n2ccnc2)cc1 [Compound 71] |  |  | -22 |  |
| O=C(Nc1ccccc1-n1ccnc1)NC1CCCCC1 [Compound 68] |  |  | -26 |  |

| SMILES | ED60 [1] [mg/kg] | ED50 [2] [mg/kg] | change in vivo at 100 mg/kg [3] [%] | other results |
| --- | --- | --- | --- | --- |
| O=C(Nc1ccccc1-n1ccnc1)c1cccc(C(F)(F)F)c1 [Compound 38] |  |  | -41 |  |
| CCC(=O)Nc1ccccc1-n1ccnc1 [Compound 3] | 50 | 50 |  | D.H.S. (ED60) ([1]; s.c.): 50.0 mg/kg |
| Clc1cccc(-c2nc3ccccc3n3ccnc23)c1 [Compound 142] | 4.2 | 0.2 |  | MIC [4]: 100 µg/mL (≈ 357 µM) |
| O=C(Nc1ccccc1-n1ccnc1)C1CC1 [Compound 23] |  |  | -46 |  |
| CC(=O)Oc1ccccc1C(=O)O [Aspirin, reference compound] |  |  | -57 |  |
| CCCCSc1ccc(-c2nc3ccccc3n3ccnc23)cc1 [Compound 222] | > 32 | 1 |  |  |
| Brc1cccc(Nc2nc3ccccc3n3ccnc23)c1 [Compound 178] | 46 | 11 |  |  |
| Cc1cccc(C(=O)Nc2ccccc2-n2ccnc2)c1 [Compound 36] |  |  | -7 | change in vivo at 400 mg/kg [3]: -68% |
| Fc1cccc(-c2nc3ccccc3n3ccnc23)c1 [Compound 158] | 7.6 | 1 |  |  |
| Cc1ccc(Nc2nc3ccccc3n3ccnc23)cc1 [Compound 171] | 59 | 0.96 |  |  |
| COc1ccc(C(=O)Nc2ccccc2-n2ccnc2)cc1 [Compound 55] |  |  | -26 |  |
| Cc1ccc(C(=O)Nc2ccccc2-n2ccnc2)cc1 [Compound 37] |  |  | -35 |  |
| CC(=O)Nc1ccccc1-n1ccnc1 [Compound 2] |  |  | -26 | change in vivo at 400 mg/kg [3]: 43% |
| COc1ccc2c(c1)c(CC(=O)O)c(C)n2C(=O)c1ccc(Cl)cc1 [Indomethacin, reference compound] |  |  | -65 |  |
| O=C(Nc1ccccc1-n1ccnc1)C(Cl)Cl [Compound 29] |  |  | -24 | change in vivo at 400 mg/kg [3]: -25% |
| Brc1cccc(-c2nc3ccccc3n3ccnc23)c1 [Compound 157] | 12 | 0.39 |  |  |
| CCc1nc2ccccc2n2ccnc12 [Compound 111] |  |  | -43 |  |
| O=C(Nc1ccccc1-n1ccnc1)c1ccc(F)cc1 [Compound 45] |  |  | -33 |  |
| CC(C)CC(=O)Nc1ccccc1-n1ccnc1 [Compound 14] |  |  | -52 |  |

| SMILES | ED60 [1] [mg/kg] | ED50 [2] [mg/kg] | change in vivo at 100 mg/kg [3] [%] | other results |
| --- | --- | --- | --- | --- |
| COc1cc(OC)cc(C(=O)Nc2ccccc2-n2ccnc2)c1 [Compound 57] |  |  | -35 |  |
| Brc1ccc(Nc2nc3ccccc3n3ccnc23)cc1 [Compound 183] | 15 | 0.39 |  |  |
| Clc1ccc(Nc2nc3ccccc3n3ccnc23)cc1Cl [Compound 175] | 5.9 | 0.09 |  |  |
| O=C(Nc1ccccc1-n1ccnc1)c1ccc(Cl)cc1Cl [Compound 52] |  |  | -26 |  |
| CCCCC1C(=O)N(c2ccccc2)N(c2ccccc2)C1=O [phenylbutazone, reference compound] |  |  | -76 |  |
| Oc1ccc(-c2nc3ccccc3n3ccnc23)cc1 [Compound 162] |  | 13 |  |  |
| Fc1ccc(-c2nc3ccccc3n3ccnc23)cc1 [Compound 147] | 1.7 | 0.027 | -39 |  |
| c1ccc(Nc2nc3ccccc3n3ccnc23)cc1 [Compound 170] | > 50 | 6.6 |  |  |
| CCCCCCCCc1nc2ccccc2n2ccnc12 [Compound 117] | 46 | > 50 | -7 | change in vivo at 400 mg/kg [3]: -18% |
| Brc1ccc(-c2nc3ccccc3n3ccnc23)cc1 [Compound 146] | 3.1 | 0.11 |  |  |
| O=C(Cc1ccccc1)Nc1ccccc1-n1ccnc1 [Compound 18] |  |  | -28 |  |
| Cc1ccccc1Nc1nc2ccccc2n2ccnc12 [Compound 197] | 37 | 1.6 |  |  |
| Ic1ccc(-c2nc3ccccc3n3ccnc23)cc1 [Compound 196] | 45 | 0.42 |  |  |
| CCCCC(CC)C(=O)Nc1ccccc1-n1ccnc1 (centres unmarked) [Compound 15] |  |  | -24 | change in vivo at 400 mg/kg [3]: -5% |
| O=C(Nc1ccc(Cl)cc1)Nc1ccccc1-n1ccnc1 [Compound 75] |  |  | -30 |  |
| CCCCCCc1nc2ccccc2n2ccnc12 [Compound 115] |  |  | 70 | change in vivo at 400 mg/kg [3]: -25% |
| O=C(Nc1ccccc1-n1ccnc1)c1cccc([N+](=O)[O-])c1 [Compound 42] |  |  | -9 | change in vivo at 400 mg/kg [3]: -25% |
| Fc1ccccc1Nc1nc2ccccc2n2ccnc12 [Compound 180] |  | 5.6 |  |  |
